# Experimental data reported in patent US20260248852A1, “SYNTHETIC ANTIGEN RECEPTORS FOR COVALENT IMMUNE RECRUITERS AND METHODS AND USES THEREOF” (McMaster University, priority 2022, published 2026).
# Entries after “also recorded” stand apart in the source; their conditions may differ.
# Tests used:
# [1] = system: Anti-DNP CD28 CAR GDT cells; test: Labeling time course of Anti-DNP CD28 CAR GDT cells with CIR/(N)CIR; type: binding, human; details: 10 nM, 100 nM, 1 uM, up to 3 hours
# Method: (§1) Engineered GDT-cells: PBMCs were seeded at 4E6 cells per well in a 24 well G-Rex plate in the presence of 1 ug/ml zoledronate and 1.5 ng/ml human IL2. Three days later, the cells were incubated overnight in a 24 well non tissue culture treated plate that was pre coated with retronectin and retrovirus supernatant containing viruses encoding either the Anti-DNP DAP12-SAR or the Anti-DNP CD28 CAR. The cells were then transferred back to the G-Rex plate and cultured for a further 11 days at which point, the cell product was collected, CD4/CD8 T cells were removed by magnetic selection and the purified engineered GDT cells were cryopreserved.
# (§2) Flow cytometry: To assess the fraction of GDT cells which express the Anti-DNP synthetic antigen receptor, the cells were stained with the following antibodies/fluorophores: Myc biotin, streptavidin PE, vδ2 APC, TCR ab FITC, and CD3 BV605. The CD3 BV605, TCR ab FITC, and Vδ2 APC were used to specifically gate on Vδ2 GDT-cells. The anti-Myc biotin and streptavidin PE secondary were used to assess transduction level.
# (§3) For labeling time-course studies, T-cells were incubated with varying concentrations (10 nM, 100 nM, 1 uM) of either DNP-Acyl Imidazole-Desthiobiotin or DNP-Desthiobiotin for different time periods up to 3 hours at room temperature in FACs buffer. […]
# [2] = system: Anti-DNP TAC T cells (anti-DNP scFv containing T-cells); test: Labeling of Anti-DNP TAC ABT cells with CIR/(N)CIR, Streptavidin-PE flow cytometry; type: binding, human; details: 1 uM; for labeling time course (binding): 10 nM, 100 nM, up to 3 hours at room temperature, washed; for covalent binding and labeling of T cells (Streptavidin-PE): Anti-DNP TAC ABT cells, overnight at 4 degrees, washed 3 times
# Method: (§4) Labeling with CIR/(N)CIR: ABT-cells were labelled overnight at 4 degrees in T-cell media with 1 uM of either DNP-Acyl Imidazole-Desthiobiotin or DNP-Desthiobiotin. DNP-Glycine competitor was also added to some conditions with at 200 uM as a competitor to assess labelling specificity. After the overnight incubation the samples were washed 3 times with FACs buffer to remove any non-covalently bound molecule and stained with Streptavidin-PE to assess labelling. The samples were also stained with near IR Live/Dead, anti-CD4 Pacific Blue, and anti-CD8 Alexa fluor 700 to allow for appropriate gating on live ABT-cells. The samples were assessed for Streptavidin-PE labelling via flow cytometry.
# For labeling time-course studies, T-cells were incubated with varying concentrations (10 nM, 100 nM, 1 uM) of either DNP-Acyl Imidazole-Desthiobiotin or DNP-Desthiobiotin for different time periods up to 3 hours at room temperature in FACs buffer. The “0” hour time point was the final time point and accounts for the 5-minute period needed to spike in CIR/(N)CIR and spin down to stop labelling. After adding DNP-Acyl Imidazole-Desthiobiotin or DNP-Desthiobiotin to all time points the cells were washed 3 times and stained for flow cytometry analysis as described above.
# as §4, with “either DNP-SuFEx-Desthiobiotin,” for “either”, “αβ T-cells.” for “ABT-cells.”
# [3] = system: Anti-DNP DAP12-SAR GDT cells; test: Labeling time course of Anti-DNP DAP12-SAR GDT cells with CIR/(N)CIR; type: binding, human; details: 10 nM, 100 nM, 1 uM, up to 3 hours
# Method: as §1, §2, §3
# 293-PSMA cells [4] = test: CD69 and Nur77 expression of activated ABT cells with 293-PSMA cells; type: cell-based, human; details: Anti-DNP TAC-T cells; 10 nM and 1 nM
# Description: Cells were stained for surface marker expression via Pacific Blue-conjugated mouse anti-human CD4, and AlexaFluor700-conjugated mouse anti-human CD8a, VioBright FITC-conjugated mouse anti-human NGFR, and anti-huCD69, fixed and permeabilized in Permiabilization concentrate diluted in permeabilization diluent, and stained intracellularly with PE-conjugated mouse anti-mouse Nur77.
# 293-PSMA cells [5] = test: Proliferation of adapter functionalized engineered ABT cells (CellTrace Violet); type: cell-based, human
# Method: Each engineered T cell was also cultured in media alone as a control to compare to. All proliferation assay samples were incubated for 3 days at 37° C. and 5% CO2. Cells were then stained with Live/Dead Fixable Near-IR stain, PerCP-Cy5.5-conjugated mouse anti-human CD8a, Alexa Fluor 700-conjugated mouse anti-human CD4, VioBright FITC-conjugated mouse anti-human NGFR, and BV605-conjugated mouse anti-human CD3. Flow cytometry data were acquired.
# [6] = system: HEK293-PSMA cells (PSMA expressing); test: Cytokine production of engineered ABT cells following stimulation with HEK293-PSMA cells; type: cell-based, human
# Method: Measuring cytokine production following stimulation with HEK-293 cells: In a 96 well round bottom plate, 4E5 HEK293-PSMA cells (PSMA expressing) or HEK293-WT cells were incubated with 4E5 Anti-DNP TAC ABT cells, Anti-DNP DAP12 SAR ABT cells, or Anti-CD28 CAR ABT-cells. […] To stop the activation 20 mM EDTA was added and incubated for 15 minutes. Cells were stained for surface expression of CD4 and CD8, fixed and permeabilized in Cytofix/Cytoperm buffer, and stained with APC-conjugated mouse anti-human interferon-gamma, and FITC-conjugated mouse anti-human tumor necrosis factor-alpha. Cells were then run on the Beckman Coulter Cytoflex flow cytometer. The percent of cells positive for tumor necrosis factor-alpha and interferon-gamma for CD4 and CD8 T-cell populations were graphed separately showing the same overall trends.
# [7] = system: PSMA transduced HEK-293 cells; test: CD69 upregulation of DNP-TAC T cells following stimulation with HEK-293 PSMA cells; type: cell-based, human; details: DNP-TAC T cells pre labelled 6 hours; co-culture overnight
# Method: The cells were co-cultured together overnight at 37 degrees. To stop the activation, 20 mM EDTA was added and incubated for 15 minutes. The cells were spun down, media was aspirated, and the cells were stored in 200 μL of cRPMI at 4 degrees prior to staining. The cells were stained with Live-Dead Zombie Aqua, anti-CD3 BV605, anti-CD4 Pacific Blue, anti-CD8 Alexa Fluor 700, anti-NGFR Viobright FITC, and anti-CD69 BV650. Upon staining the cells were run on the Beckman Coulter Cytoflex flow cytometer and analyzed for CD69 expression.
# [8] = system: PSMA-positive LNCaP cells; test: Anti-DNP TAC ABT cell mediated killing of LNCaP cells (Incucyte); type: cell-based, human
# Method: Measuring T cell mediated killing of LNCaP cells: LNCaP prostate cancer cells, which are prostate specific membrane antigen (PSMA) positive, were engineered with Nuclight Red lentivirus to produce cells with nuclear localized red fluorescence to allow for ease of imaging in these experiments. […] The 3 components were co-cultured for 3 days with 4 images per well taken every 6 hours. Samples were run in triplicate. The number of LnCap cells per well at each time point was calculated using the Incucyte cell by cell analysis software and plotted. The area under the growth curve was used as a metric for tumor cell growth for this figure. The larger the area, the greater the tumor cell growth that occurred over the 3 days. The area under the curve for the LnCap control and each condition were used to calculate the % cytotoxicity.
# [9] = system: PSMA transduced HEK-293 cells; test: IFN-gamma / TNF-alpha production of Anti-DNP TAC ABT cells following stimulation with HEK-293 PSMA cells; type: cell-based, human; details: Anti-DNP TAC ABT cells prelabelled 6 hours; co-culture 4 hours
# Method: The cells were co-cultured together for 4 hours at 37 degrees. Golgi plug was added prior to the co-incubation to prevent cytokine secretion. To stop the activation 20 mM EDTA was added and incubated for 15 minutes. The cells were spun down, media was aspirated, and the cells were stored in 200 μL of cRPMI overnight at 4 degrees. The next day, the cells were surface stained with anti-CD4 Pacific Blue, anti-CD8 Alexa Fluor 700, and anti-NGFR Viobright FITC. The cells were then fixed and permeabilized using a fix/perm buffer solution. The cells were then intracellularly stained with anti-CD3 BV605, anti-TNF-alpha PE-CY7, and anti-IFN-gamma APC. Cells were then run on the Beckman Coulter Cytoflex flow cytometer. The percent of cells positive for TNF-alpha and IFN-gamma, as well as cells positive for both were recorded in the table for the separate CD4 and CD8 T-cell populations.
# [10] = system: PSMA-positive LNCaP cells; test: Anti-DNP GDT cell mediated killing of LNCaP cells (Incucyte); type: cell-based, human
# Method: Measuring T cell mediated killing of LNCaP cells: LNCaP prostate cancer cells, which are prostate specific membrane antigen (PSMA) positive, were engineered with Nuclight Red lentivirus to produce cells with nuclear localized red fluorescence to allow for ease of imaging in these experiments. […] Samples were run in triplicate. The number of LNCaP cells per well at each time point was calculated using the Incucyte cell by cell analysis software and plotted. The area under the growth curve was used as a metric for tumor cell growth for this figure. The larger the area, the greater the tumor cell growth that occurred over the 3 days. The area under the curve for the LNCaP control and each condition were used to calculate the % cytotoxicity.
structure (smiles),measurement,setting,value
CC1NC(=O)NC1CCCCCC(=O)NCCOCCOCCOCCOC(=O)n1cnc(CCNC(=O)CNc2ccc([N+](=O)[O-])cc2[N+](=O)[O-])c1 (stereo not shown) [DNP-Acyl Imidazole-Desthiobiotin],labeling time course (binding),[1],rapid covalent binding
same,labeling time course (binding),[2],rapid covalent binding
same,time to maximal loading of DNP-TAC T cells,[2],several hours
same,time until all Anti-DNP TAC T cells are loaded,[2],≤ 30 min
same,covalent binding and labeling of T cells (Streptavidin-PE),[2],can covalently bind and label
same,labeling time course (binding),[3],rapid covalent binding
"CC1NC(=O)NC1CCCCCC(=O)NCCOCCOC(=O)NCCOCCNC(=O)CNc1ccc([N+](=O)[O-])cc1[N+](=O)[O-] (stereo not shown) [DNP-Desthiobiotin, reference compound]",labeling time course (binding),[1],minimal binding
same,labeling time course (binding),[2],complete absence of binding
same,covalent binding and labeling of T cells (Streptavidin-PE),[2],cannot
same,labeling time course (binding),[3],minimal binding
"O=C(O)CC[C@H](NC(=O)N[C@@H](CCCCNC(=O)NCCOCCOCCOCCOCCOCCOCCOCCOC(=O)NCCOCCNC(=O)CNc1ccc([N+](=O)[O-])cc1[N+](=O)[O-])C(=O)O)C(=O)O [PSMA-(N)CIR, DNP-Glutamate-Urea-Lysine, reference compound]","T cell activation (Nur77, CD69)",293-PSMA cells [4],only the PSMA-CIR could elicit T cell activation
same,T cell proliferation (percent divided),"293-PSMA cells [5]; Anti-DNP12 SAR T cells, 1 nM or 10 nM",did not proliferate
same,T cell proliferation (percent divided),"293-PSMA cells [5]; Anti-DNP DAP12 SAR T cells, 1 nM, 10 nM, or 100 nM",little proliferation
same,T cell proliferation (percent divided),"293-PSMA cells [5]; Anti-DNP DAP12 SAR T cells, 100 nM",modest proliferation
same,T cell proliferation (percent divided),"293-PSMA cells [5]; Anti-DNP TAC T cells, 1, 10, 100 nM, 3 days",failed to proliferate above background; also recorded: little proliferation
same,cytokine production,"[6]; CD28-CAR T cells, highest concentration (100 nM)",equivalent levels of cytokine production
same,cytokine production,"[6]; DAP12-SAR T cells, 1, 10, 100 nM",some cytokine production was observed with higher concentrations; also recorded: could be activated by both CIR and (N)CIR
same,cytokine production,"[6]; TAC T cells, 1, 10, 100 nM",no cytokine production
same,T cell activation based on upregulation of CD69,[7],failed to demonstrated any evidence of activation
same,killing of LNCaP cells,"[8]; E:T 8:1, 15.63 nM to 125 nM, 3 days",unable to direct T cell cytotoxicity; also recorded: did not promote killing of LNCaP cells at any concentration
same,concentration effective at engaging tumor killing,"[8]; E:T 8:1, 3 days",> 125 nM
same,production of IFN-gamma and TNF-alpha,[9],failed to demonstrated any evidence of activation
same,killing of LNCaP cells at limiting concentration,"[10]; Anti-DNP CD28 CAR GDT cells, 10 nM or 1 nM adapter",inability of the PSMA-(N)CIR to effectuate killing
same,tumor killing over a range of concentrations,"[10]; Anti-DNP CD28 CAR GDT cells, 15 nM to 250 nM",diminished at lower levels
same,killing of LNCaP cells,"[10]; Anti-DNP CD28 CAR GDT cells, 125 nM adapter",could direct T cell cytotoxicity; also recorded: displayed tumor growth control
same,killing of LNCaP cells,"[10]; Anti-DNP DAP12-SAR GDT cells, 125 nM adapter",unable to direct T cell cytotoxicity
same,adapter concentration at which tumor killing is observed,[10]; Anti-DNP DAP12 SAR GDT cells,> 125 nM
same,killing of LNCaP cells,"[10]; Anti-DNP DAP12 SAR GDT cells, 250 nM (highest concentration)",only weak killing
same,killing of LNCaP cells after preincubation and wash,"[10]; Anti-DNP DAP12 SAR and Anti-DNP CD28 CAR GDT cells, 1 uM adapter for 6 hours, washed, then co-culture",Only the T cells incubated with the PSMA-CIR retained the ability to kill
same,killing of LNCaP cells,"[10]; CD28 CAR GDT cells, 10 nM adapter",unable to elicit any killing
same,LNCaP killing over a range of concentrations,"[10]; both Anti-DNP DAP12-SAR GDT cells and Anti-DNP CD28 CAR GDT cells, 15.6 nM-250 nM",killing diminished with lower concentrations
